Patent US20180000085A1, “USE OF PICOLINAMIDE COMPOUNDS WITH FUNGICIDAL ACTIVITY” (DOW AGROSCIENCES LLC, priority 2014, published 2018)

Assays:
Puccinia triticina = test: Wheat brown rust (PUCCRT) disease control on wheat seedlings; format: in vivo; settings: low volume application, 125.1 g/H; for PUCCRT 1DP, LV activity at 125.1 g/H (% Control rating): 1 Day Protectant; for PUCCRT 3DC, LV activity at 125.1 g/H (% Control rating): 3 Day Curative
Zymoseptoria tritici = test: Leaf blotch of wheat (SEPTTR) disease control on wheat seedlings; format: in vivo; design: key to SEPTTR 1DP, HV activity at 100 ppm (% control rating) / SEPTTR 3DC, HV activity at 100 ppm (% control rating) / SEPTTR disease control, 1DP / SEPTTR disease control, 3DC / SEPTTR 1DP disease control rating, HV activity / SEPTTR 3DC disease control rating, HV activity / SEPTTR 3DC, LV activity at 125.1 g/H (% Control rating) / SEPTTR 1DP, LV activity at 125.1 g/H (% Control rating) / SEPTTR 1DP disease control rating, LV activity at 125.1 g/H / SEPTTR 3DC disease control rating, LV activity at 125.1 g/H / SEPTTR 3DC disease control rating, HV activity at 100 ppm / SEPTTR 1DP disease control rating, HV activity at 100 ppm / HV activity at 100 ppm SEPTTR 3DC (disease control rating) / HV activity at 100 ppm SEPTTR 1DP (disease control rating) / LV activity at 125.1 g/H SEPTTR 1DP (disease control rating) / LV activity at 125.1 g/H SEPTTR 3DC (disease control rating): A: > 80; B: ≤ 80; C: Not Tested; D: No Activity Observed in the Reported Assay; settings: low volume application, 125.1 g/H; for SEPTTR 1DP, LV activity at 125.1 g/H (% Control rating): 1 Day Protectant; for SEPTTR 3DC, LV activity at 125.1 g/H (% Control rating): 3 Day Curative

Compound | PUCCRT 1DP, LV activity at 125.1 g/H (% Control rating) (Puccinia triticina) | PUCCRT 3DC, LV activity at 125.1 g/H (% Control rating) (Puccinia triticina) | SEPTTR 1DP, LV activity at 125.1 g/H (% Control rating) (Zymoseptoria tritici) | SEPTTR 3DC, LV activity at 125.1 g/H (% Control rating) (Zymoseptoria tritici)
COc1ccnc(C(=O)N[C@@H](C)C(=O)O[C@@H](C)[C@H](Oc2cccc(Cl)c2)C(C)C)c1OCOC(=O)C(C)C [Cmpd 571] | A (> 80) | A (> 80) | B (≤ 80) | A (> 80)
COc1ccnc(C(=O)N[C@@H](C)C(=O)O[C@@H](C)[C@H](Oc2ccc(Cl)cc2Cl)C(C)C)c1OCOC(=O)C(C)C [Cmpd 572] | A (> 80) | A (> 80) | B (≤ 80) | B (≤ 80)
COc1ccnc(C(=O)N[C@@H](C)C(=O)O[C@@H](C)[C@H](Oc2ccc(Cl)cc2)C(C)C)c1OCOC(=O)C(C)C [Cmpd 573] | A (> 80) | A (> 80) | A (> 80) | A (> 80)
COc1ccnc(C(=O)N[C@@H](Cc2ccccc2)C(=O)O[C@@H](C)[C@H](Oc2cccc(F)c2)c2ccccc2)c1OCOC(C)=O [Cmpd 576] | A (> 80) | B (≤ 80) | B (≤ 80) | D
COc1ccnc(C(=O)N[C@@H](Cc2ccccc2)C(=O)O[C@@H](C)[C@H](Oc2cccc(F)c2)c2ccccc2)c1OC(C)=O [Cmpd 577] | A (> 80) | B (≤ 80) | B (≤ 80) | D
COc1ccnc(C(=O)N[C@@H](C)C(=O)O[C@@H](C)[C@H](Oc2ccc(C(F)(F)F)cc2)c2ccccc2)c1OC(C)=O [Cmpd 583] | A (> 80) | B (≤ 80) | A (> 80) | A (> 80)
COc1ccnc(C(=O)N[C@H](C(=O)O[C@@H](C)[C@H](Oc2ccc(C(F)(F)F)cc2)c2ccccc2)C(C)C)c1OCOC(C)=O [Cmpd 584] | A (> 80) | B (≤ 80) | A (> 80) | D
COc1ccnc(C(=O)N[C@H](C(=O)O[C@@H](C)[C@H](Oc2ccc(C(F)(F)F)cc2)c2ccccc2)C(C)C)c1OC(C)=O [Cmpd 585] | A (> 80) | B (≤ 80) | A (> 80) | D
CCC(CC)[C@@H](Oc1cccc(F)c1)[C@H](C)OC(=O)[C@H](C)NC(=O)c1nccc(OC)c1OCOC(C)=O [Cmpd 586] | A (> 80) | A (> 80) | B (≤ 80) | A (> 80)
CCC(CC)[C@@H](Oc1ccc(Cl)cc1Cl)[C@H](C)OC(=O)[C@H](C)NC(=O)c1nccc(OC)c1OCOC(C)=O [Cmpd 590] | A (> 80) | B (≤ 80) | B (≤ 80) | B (≤ 80)
CCC(CC)[C@@H](Oc1cc(F)ccc1F)[C@H](C)OC(=O)[C@H](C)NC(=O)c1nccc(OC)c1OCOC(C)=O [Cmpd 591] | A (> 80) | A (> 80) | B (≤ 80) | A (> 80)
CCC(CC)[C@@H](Oc1ccc(C(F)(F)F)cc1)[C@H](C)OC(=O)[C@H](C)NC(=O)c1nccc(OC)c1OCOC(C)=O [Cmpd 594] | A (> 80) | A (> 80) | A (> 80) | B (≤ 80)
CCC(CC)[C@@H](Oc1cccc(-c2ccccc2)c1)[C@H](C)OC(=O)[C@H](C)NC(=O)c1nccc(OC)c1OCOC(C)=O [Cmpd 595] | A (> 80) | B (≤ 80) | A (> 80) | A (> 80)
CCC(CC)[C@@H](Oc1ccc(-c2ccccc2)cc1)[C@H](C)OC(=O)[C@H](C)NC(=O)c1nccc(OC)c1OCOC(C)=O [Cmpd 596] | A (> 80) | B (≤ 80) | A (> 80) | B (≤ 80)
CCC(CC)[C@@H](Oc1ccc(Cl)cc1Cl)[C@H](C)OC(=O)[C@H](C)NC(=O)c1nccc(OC)c1OC(C)=O [Cmpd 601] | A (> 80) | B (≤ 80) | B (≤ 80) | B (≤ 80)
CCC(CC)[C@@H](Oc1cc(F)ccc1F)[C@H](C)OC(=O)[C@H](C)NC(=O)c1nccc(OC)c1OC(C)=O [Cmpd 602] | A (> 80) | A (> 80) | A (> 80) | A (> 80)
CCC(CC)[C@@H](Oc1cc(F)cc(Cl)c1)[C@H](C)OC(=O)[C@H](C)NC(=O)c1nccc(OC)c1OC(C)=O [Cmpd 603] | A (> 80) | A (> 80) | A (> 80) | A (> 80)
CCC(CC)[C@@H](Oc1ccc(C(F)(F)F)cc1)[C@H](C)OC(=O)[C@H](C)NC(=O)c1nccc(OC)c1OC(C)=O [Cmpd 605] | A (> 80) | B (≤ 80) | A (> 80) | B (≤ 80)
CCC(CC)[C@@H](Oc1cccc(-c2ccccc2)c1)[C@H](C)OC(=O)[C@H](C)NC(=O)c1nccc(OC)c1OC(C)=O [Cmpd 606] | A (> 80) | B (≤ 80) | A (> 80) | B (≤ 80)
CCC(CC)[C@@H](Oc1ccc(-c2ccccc2)cc1)[C@H](C)OC(=O)[C@H](C)NC(=O)c1nccc(OC)c1OC(C)=O [Cmpd 607] | A (> 80) | B (≤ 80) | A (> 80) | B (≤ 80)
COc1ccnc(C(=O)N[C@@H](C)C(=O)O[C@@H](C)[C@H](Oc2ccc(-c3ccccc3)cc2)C(C)C)c1OCOC(C)=O [Cmpd 612] | A (> 80) | B (≤ 80) | D | B (≤ 80)
COc1ccnc(C(=O)N[C@@H](C)C(=O)O[C@@H](C)[C@H](Oc2cccc(-c3ccccc3)c2)C(C)C)c1OCOC(C)=O [Cmpd 613] | A (> 80) | A (> 80) | B (≤ 80) | B (≤ 80)
COc1ccnc(C(=O)N[C@@H](C)C(=O)O[C@@H](C)[C@H](Oc2ccc(C(F)(F)F)cc2)C(C)C)c1OCOC(C)=O [Cmpd 618] | A (> 80) | A (> 80) | B (≤ 80) | A (> 80)
CC[C@H](C)[C@H](NC(=O)c1nccc(OC)c1OCOC(C)=O)C(=O)O[C@@H](C)[C@H](Oc1cc(F)ccc1F)C(C)C [Cmpd 619] | A (> 80) | A (> 80) | D | D
